Measurements: patent publication US9522914B2, “Azole derivative” (TAISHO PHARMACEUTICAL CO., LTD, priority 2011, dated 2016)

Molecular target: Human V1b receptor (Homo sapiens (Human), UniProt P47901)
Assay: Binding Test for V1b Receptor ([3H]AVP, crude membrane preparation of 293FT cells)
Settings: inhibition of [3H]AVP binding (0.4 to 1 nmol/L), room temperature, 60 minutes
Method in brief: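 Crude membranes from 293FT cells transiently expressing human V1b, incubated with [3H]AVP (0.4 to 1 nmol/L) and compound (0.01 nmol/L–1 μmol/L final) in Tris pH 7.4 with MgCl2 and 0.1% BSA, 60 min at room temperature. Bound label collected by filtration. Nonspecific binding defined with unlabeled AVP; IC50 from dose-response curve.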

Sequence of Human V1b receptor (P47901 whole entry): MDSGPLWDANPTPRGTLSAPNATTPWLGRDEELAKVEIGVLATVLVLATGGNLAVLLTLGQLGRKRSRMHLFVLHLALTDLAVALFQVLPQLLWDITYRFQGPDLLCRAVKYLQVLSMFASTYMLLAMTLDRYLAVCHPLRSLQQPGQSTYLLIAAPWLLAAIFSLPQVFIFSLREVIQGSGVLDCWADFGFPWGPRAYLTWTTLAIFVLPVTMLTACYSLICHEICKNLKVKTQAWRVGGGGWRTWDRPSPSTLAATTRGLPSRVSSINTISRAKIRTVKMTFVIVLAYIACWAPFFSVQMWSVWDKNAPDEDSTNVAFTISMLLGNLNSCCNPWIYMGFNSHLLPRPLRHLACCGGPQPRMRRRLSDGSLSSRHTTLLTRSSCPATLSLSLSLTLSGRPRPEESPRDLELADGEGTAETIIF

SMILES | IC50
CC(C)NC(=O)Cc1nn(-c2ccc(CCN3CCOCC3)c(F)c2)c(=O)n1-c1cccc(Cl)c1 [Example D-20, 2-[4-(3-chlorophenyl)-1-{3-fluoro-4-[2-(morpholin-4-yl)ethyl]phenyl}-5-oxo-4,5-dihydro-1H-1,2,4-triazol-3-yl]-N-(propan-2-yl)acetamide] | 20 nM
COc1cc(-n2c(CC(=O)NC(C)C)nn(-c3ccc(CCN4C5CCC4COC5)c(OC)c3)c2=O)ccc1F [Example D-41, 2-[4-(4-fluoro-3-methoxyphenyl)-1-{3-methoxy-4-[2-(3-oxa-8-azabicyclo[3.2.1]oct-8-yl)ethyl]phenyl}-5-oxo-4,5-dihydro-1H-1,2,4-triazol-3-yl]-N-(propan-2-yl)acetamide] | 2.7 nM
COc1cc(-c2nc(-c3ccc(CCN4CC(F)C4)cc3)cn2CC(=O)NC(C)C)ccc1F [Example A-19, 2-[4-{4-[2-(3-fluoroazetidin-1-yl)ethyl]phenyl}-2-(4-fluoro-3-methoxyphenyl)-1H-imidazol-1-yl]-N-(propan-2-yl)acetamide] | 10 to 100 nM
CC(C)NC(=O)Cn1cc(-c2ccc(CCN3CCC(CO)C3)cc2)nc1-c1cccc(Cl)c1 (stereo not drawn) [Example A-07, 2-[2-(3-chlorophenyl)-4-(4-{2-[3-(hydroxymethyl)pyrrolidin-1-yl]ethyl}phenyl)-1H-imidazol-1-yl]-N-(propan-2-yl)acetamide] | 18 nM
COc1cc(-c2nc(-c3ccc(CCN4CCOCC4)cn3)nn2CC(=O)NC(C)C)ccc1F [Example B-13, 2-[5-(4-fluoro-3-methoxyphenyl)-3-{5-[2-(morpholin-4-yl)ethyl]pyridin-2-yl}-1H-1,2,4-triazol-1-yl]-N-(propan-2-yl)acetamide] | 8.9 nM
CC(C)NC(=O)Cn1cc(-c2ccc(OCCN3CCCCC3)cc2)nc1-c1cccc(Cl)c1 [Example A-33, 2-[2-(3-chlorophenyl)-4-{4-[2-(piperidin-1-yl)ethoxy]phenyl}-1H-imidazol-1-yl]-N-(propan-2-yl)acetamide] | 100 to 1000 nM
COc1cccc(-c2nc(-c3ccc(CCN4CCCC4)cc3)nn2CC(=O)NC(C)C)c1 [Example B-21, 2-[5-(3-methoxyphenyl)-3-{4-[2-(pyrrolidin-1-yl)ethyl]phenyl}-1H-1,2,4-triazol-1-yl]-N-(propan-2-yl)acetamide] | 10 to 100 nM
COc1cc(-n2c(CC(=O)NC(C)(C)C)nn(-c3ccc(CCN4C5CCC4COC5)cn3)c2=O)ccc1F [Example D-12, N-tert-butyl-2-[4-(4-fluoro-3-methoxyphenyl)-1-{5-[2-(3-oxa-8-azabicyclo[3.2.1]oct-8-yl)ethyl]pyridin-2-yl}-5-oxo-4,5-dihydro-1H-1,2,4-triazol-3-yl]acetamide] | 7 nM
CC(C)NC(=O)Cc1nc(-c2cccc(CCN3CCOCC3)c2)sc1-c1cccc(Cl)c1 [Example C-17, 2-[5-(3-chlorophenyl)-2-{3-[2-(morpholin-4-yl)ethyl]phenyl}-1,3-thiazol-4-yl]-N-(propan-2-yl)acetamide] | 100 to 1000 nM
COc1cc(-c2nc(-c3ccc(CCN4CC(C#N)C4)cc3)cn2CC(=O)NC(C)C)ccc1F [Example A-16, 2-[4-{4-[2-(3-cyanoazetidin-1-yl)ethyl]phenyl}-2-(4-fluoro-3-methoxyphenyl)-1H-imidazol-1-yl]-N-(propan-2-yl)acetamide] | 100 to 1000 nM
CC(C)NC(=O)Cc1nn(-c2ccc(CCN3CC4(CCOCC4)C3)cc2)c(=O)n1-c1cccc(Cl)c1 [Example D-56, 2-[4-(3-chlorophenyl)-1-{4-[2-(7-oxa-2-azaspiro[3.5]non-2-yl)ethyl]phenyl}-5-oxo-4,5-dihydro-1H-1,2,4-triazol-3-yl]-N-(propan-2-yl)acetamide] | 10 to 100 nM
CC(C)NC(=O)Cc1nn(-c2ccc(CCN3CCCC3)cc2)c(=O)n1-c1ccc(F)c(Cl)c1 [Example D-43, 2-[4-(3-chloro-4-fluorophenyl)-5-oxo-1-{4-[2-(pyrrolidin-1-yl)ethyl]phenyl}-4,5-dihydro-H-1,2,4-triazol-3-yl]-N-(propan-2-yl)acetamide] | 15 nM
COc1cccc(-c2nc(-c3ccc(CCN4CCOCC4)cc3)cn2CC(=O)NC(C)C)n1 [Example A-29, 2-[2-(6-methoxypyridin-2-yl)-4-{4-[2-(morpholin-4-yl)ethyl]phenyl}-1H-imidazol-1-yl]-N-(propan-2-yl)acetamide] | 27 nM
CC(C)NC(=O)Cn1cc(C(=O)N(C)C2CCC(N3CCOCC3)CC2)nc1-c1cccc(Cl)c1 (stereo not drawn) [Example A-48, 2-(3-chlorophenyl)-N-methyl-N-[4-(morpholin-4-yl)cyclohexyl]-1-[2-oxo-2-(propan-2-ylamino)ethyl]-1H-imidazole-4-carboxamide] | 100 to 1000 nM
COc1cc(-c2nc(-c3ccc(CCN4CCCCC4)cc3)cn2CC(=O)NC(C)C)ccc1F [Example A-09, 2-[2-(4-fluoro-3-methoxyphenyl)-4-{4-[2-(piperidin-1-yl)ethyl]phenyl}-1H-imidazol-1-yl]-N-(propan-2-yl)acetamide] | 16 nM
CC(C)NC(=O)Cc1nn(-c2ccc(CCN3CCOCC3)cn2)c(=O)n1-c1cccc(Cl)c1 [Example D-04, 2-[4-(3-chlorophenyl)-1-{5-[2-(morpholin-4-yl)ethyl]pyridin-2-yl}-5-oxo-4,5-dihydro-1H-1,2,4-triazol-3-yl]-N-(propan-2-yl)acetamide] | 100 to 1000 nM
CC(C)NC(=O)Cn1nc(-c2ccc(CCN3C4CCC3COC4)cn2)nc1-c1ccc(F)c(Cl)c1 [Example B-08, 2-[5-(3-chloro-4-fluorophenyl)-3-{5-[2-(3-oxa-8-azabicyclo[3.2.1]oct-8-yl)ethyl]pyridin-2-yl}-1H-1,2,4-triazol-1-yl]-N-(propan-2-yl)acetamide] | 2.8 nM
CC(C)NC(=O)Cc1nc(-c2ccc(CCN3CCOCC3)cc2)oc1-c1cccc(Cl)c1 [Example C-09, 2-[5-(3-chlorophenyl)-2-{4-[2-(morpholin-4-yl)ethyl]phenyl}-1,3-oxazol-4-yl]-N-(propan-2-yl)acetamide] | 27 nM
CC(C)NC(=O)Cn1nc(-c2ccc(CCN3C4CCC3COC4)cn2)nc1-c1cccc(Cl)c1 [Example B-04, 2-[5-(3-chlorophenyl)-3-{5-[2-(3-oxa-8-azabicyclo[3.2.1]oct-8-yl)ethyl]pyridin-2-yl}-1H-1,2,4-triazol-1-yl]-N-(propan-2-yl)acetamide] | 7.4 nM
COc1cccc(-c2nc(-c3ccc(CCN4CCC(C)(O)CC4)cc3)nn2CC(=O)NC(C)C)c1 [Example B-36, 2-[3-{4-[2-(4-hydroxy-4-methylpiperidin-1-yl)ethyl]phenyl}-5-(3-methoxyphenyl)-1H-1,2,4-triazol-1-yl]-N-(propan-2-yl)acetamide] | 10 to 100 nM
CC(C)NC(=O)CC1=C(c2cccc(Cl)c2)C(=O)N(c2ccc(CCN3CCOCC3)cc2)C1=O [Example C-18, 2-[4-(3-chlorophenyl)-1-{4-[2-(morpholin-4-yl)ethyl]phenyl}-2,5-dioxo-2,5-dihydro-1H-pyrrol-3-yl]-N-(propan-2-yl)acetamide] | 9 nM
COc1cc(-c2nc(-c3ccc(CCN4C5CCC4COC5)cn3)nn2CC(=O)NC(C)C)ccc1F [Example B-06, 2-[5-(4-fluoro-3-methoxyphenyl)-3-{5-[2-(3-oxa-8-azabicyclo[3.2.1]oct-8-yl)ethyl]pyridin-2-yl}-1H-1,2,4-triazol-1-yl]-N-(propan-2-yl)acetamide] | 3.3 nM
CC(C)NC(=O)Cn1cc(-c2ccc(CCN3CCOCC3)nc2)nc1-c1cccc(Cl)c1 [Example A-30, 2-[2-(3-chlorophenyl)-4-{6-[2-(morpholin-4-yl)ethyl]pyridin-3-yl}-1H-imidazol-1-yl]-N-(propan-2-yl)acetamide] | 21 nM
COc1cccc(-n2c(CC(=O)NC(C)C)nn(-c3ccc(CCN4C5CCC4COC5)cn3)c2=O)c1 [Example D-40, 2-[4-(3-methoxyphenyl)-1-{5-[2-(3-oxa-8-azabicyclo[3.2.1]oct-8-yl)ethyl]pyridin-2-yl}-5-oxo-4,5-dihydro-1H-1,2,4-triazol-3-yl]-N-(propan-2-yl)acetamide] | 100 to 1000 nM
CC1CCN(CCc2ccc(-n3nc(CC(=O)NC(C)C)n(-c4cccc(Cl)c4)c3=O)cc2)CC1 [Example D-49, 2-[4-(3-chlorophenyl)-1-{4-[2-(4-methylpiperidin-1-yl)ethyl]phenyl}-5-oxo-4-,5-dihydro-1H-1,2,4-triazol-3-yl]-N-(propan-2-yl)acetamide] | 100 to 1000 nM
COc1cccc(-n2c(CC(=O)NC(C)(C)C)nn(-c3ccc(CCN4CCOCC4)cn3)c2=O)c1 [Example D-08, N-tert-butyl-2-[4-(3-methoxyphenyl)-1-{5-[2-(morpholin-4-yl)ethyl]pyridin-2-yl}-5-oxo-4,5-dihydro-1H-1,2,4-triazol-3-yl]acetamide] | 10 to 100 nM
CC(C)NC(=O)Cc1nc(-c2ccc(CCN3C4CCC3COC4)cc2)nn1-c1cccc(Cl)c1 [Example C-22, 2-[1-(3-chlorophenyl)-3-{4-[2-(3-oxa-8-azabicyclo[3.2.1]oct-8-yl)ethyl]phenyl}-1H-1,2,4-triazol-5-yl]-N-(propan-2-yl)acetamide] | 8.8 nM
CC(C)NC(=O)Cn1cc(-c2ccc(CCN3CCCCC3)cc2)nc1-c1cccc(Cl)c1 [Example A-01, 2-[2-(3-chlorophenyl)-4-{4-[2-(piperidin-1-yl)ethyl]phenyl}-1H-imidazol-1-yl]-N-(propan-2-yl)acetamide] | 15 nM
COc1cccc(-c2nc(-c3ccc(CCN4CCOCC4)cc3)cn2CC(=O)NC(C)C)c1 [Example A-38, 2-[2-(3-methoxyphenyl)-4-{4-[2-(morpholin-4-yl)ethyl]phenyl}-1H-imidazol-1-yl]-N-(propan-2-yl)acetamide] | 10 nM
CC(C)NC(=O)Cn1cc(N2CCN(CCN3CCOCC3)CC2=O)nc1-c1cccc(Cl)c1 [Example A-46, 2-[2-(3-chlorophenyl)-4-{4-[2-(morpholin-4-yl)ethyl]-2-oxopiperazin-1-yl}-1H-imidazol-1-yl]-N-(propan-2-yl)acetamide] | 100 to 1000 nM
